Laboratory results reported in patent US12708624B2, “Methods of treating pulmonary fibrosis” (Amplia Therapeutics Limited, priority 2020, dated 2026).

How the values were obtained:
[1] = tested on: off-target kinase; conditions: literature; cited from earlier work
[2] = tested on: idiopathic pulmonary fibrosis; conditions: cited from earlier work; for reduction in the rate of decline in FVC: patients with mild or moderate FVC impairment at baseline, over 1 year of treatment
[3] = patients with IPF; cited from earlier work
[4] = tested on: common cytochrome P450s; assay: inhibition of common cytochrome P450s
[5] = tested on: bleomycin-induced lung fibrosis; assay: bleomycin-induced lung fibrosis, treatment model; format: in vivo, C57BL/6 mice
Description: (§1) FIG. 1. Protocols used to assess the ability of the compound of Formula I to prevent or treat lung fibrosis induced by intratracheal bleomycin (30 μl; 0.05 U/mouse) or PBS (30 μl; vehicle control).
FIG. 4. […] (a) The Ashcroft score was used to obtain a semi quantitative analysis of fibrosis (n=4 mice per group). (b) Acid-soluble collagen content in the mouse lung (n=8 mice per group).
(§2) FIG. 5. Measurements of airways hyper-responsiveness (AHR) after methacholine challenge in the mouse lung. Panels (a)-(d) prevention protocol at day 23 after a single intra-tracheal dose with PBS or bleomycin and oral dosing with the compound of formula I as indicated. Panels (e)-(h) treatment protocol at day 22 after a single intra-tracheal dose with PBS or bleomycin and oral dose with the compound of formula I as indicated. Panels (a, e) show airways resistance, (b, f) transpulmonary resistance, (c, g) elastance, and (d, h) compliance following challenge with 10 mg/ml methacholine.
(§3) Lung fibrosis in female C57BL/6 mice aged between 6-8 weeks (ARC, Perth, Australia) was induced by a single intra-tracheal dose of bleomycin (0.05 U/mouse). Control mice received 30 μl of buffered saline.
(§4) There were eight mice per group for all experiments and all mice were weighed daily during administration of the treatments.

[6] = tested on: bleomycin-induced lung fibrosis; assay: bleomycin-induced lung fibrosis, prevention model; format: in vivo, C57BL/6 mice; conditions: for lung damage (Ashcroft score): day 23, vs vehicle; for airways resistance (AHR): vs vehicle
Description: as §1
FIG. 3. Prevention Protocol. a) Measurement of mouse lung fibrosis on day 23 after treatment with PBS, bleomycin and vehicle, bleomycin and the compound of formula I 40 mg/kg or 80 mg/kg (n=8 mice per group). (a) The Ashcroft score was used to obtain a semi quantitative analysis of fibrosis (n=4 mice per group). (b) Acid-soluble collagen content in the mouse lung (n=8 mice per group).
as §2, §3
Mice in the prevention study were dosed orally once daily from 24 hours post bleomycin administration until day 22 with either 200 μl of vehicle (Sterile water containing 0.5% (w/v) hydroxypropylmethylcellulose, 0.5% (v/v) benzyl alcohol and 0.4% (v/v) Tween 80), or the compound of Formula I at a dosage of 40 mg/kg or 80 mg/kg by oral gavage.
as §4

[7] = exposure following oral dosing in mice
[8] = tested on: dog hepatocytes; assay: metabolites upon exposure to dog hepatocytes
[9] = tested on: 467 other kinases; assay: KINOMEScan assay; format: binding; conditions: tested at 1 micromolar; compared to 467 other kinases
[10] = exposure following oral dosing in dogs
[11] = exposure following oral dosing in rats
[12] = tested on: human hepatocytes; assay: metabolites upon exposure to human hepatocytes
[13] = tested on: primate hepatocytes; assay: metabolites upon exposure to primate hepatocytes
[14] = tested on: rat hepatocytes; assay: metabolites upon exposure to rat hepatocytes

Q: For CN(c1ncccc1CNc1nc(Nc2ccc3c(c2)CC(=O)N3)ncc1C(F)(F)F)S(C)(=O)=O [PF-562,271], which off-target kinase activity [1] is on record?
A: significant off-target kinase activity

Q: Which results are given for COC(=O)c1ccc2c(c1)NC(=O)/C2=C(\Nc1ccc(N(C)C(=O)CN2CCN(C)CC2)cc1)c1ccccc1 [nintedanib]?
A: deterioration of FVC on extended treatment ([2]; extended treatment for up to four years): sustained decline in deterioration of FVC; reduction in the rate of decline in FVC [2]: approximately 50%; side effects / most common adverse effects [3]: nausea and diarrhea

Q: Which results are given for COc1cc(C2CCN(C)CC2)ccc1Nc1ncc(C(F)(F)F)c(CCc2ccccc2CC(N)=O)n1 [compound of Formula I]?
A: inhibition of common cytochrome P450s [4]: no detectable inhibition; airways resistance (AHR) ([5]; 10 mg/ml methacholine, vs vehicle): no effect on airways resistance; all other measures of AHR (transpulmonary resistance, elastance, compliance) ([5]; dosing from day 7 after bleomycin, 10 mg/ml methacholine, vs vehicle): effectively reversed the AHR; lung damage (Ashcroft score) ([5]; dosing from day 7 after bleomycin, day 22, vs vehicle): did not significantly alter bleomycin-induced lung damage; other measures of AHR (transpulmonary resistance, elastance, compliance) ([6]; 10 mg/ml methacholine): did not significantly inhibit other measures of AHR; lung damage (Ashcroft score) ([6]; 40 mg/kg oral once daily): attenuated bleomycin-induced lung damage; airways resistance (AHR) ([6]; 40 mg/kg, 10 mg/ml methacholine): significantly decreased airways resistance; lung damage (Ashcroft score) ([6]; 80 mg/kg oral once daily): not at 80 mg/kg attenuated bleomycin-induced lung damage; airways resistance (AHR) ([6]; 80 mg/kg, 10 mg/ml methacholine): significantly decreased airways resistance; exposure dose proportionality [7]: dose-proportional exposures; unique metabolites [8]: no unique metabolites; S10 selectivity score [9]: 0.02; exposure dose proportionality [10]: dose-proportional exposures; exposure dose proportionality [11]: dose-proportional exposures; unique metabolites [12]: no unique metabolites; unique metabolites [13]: no unique metabolites; unique metabolites [14]: no unique metabolites

Q: Which “reduction in the rate of decline in FVC” value [2] does the source give for Cc1ccc(=O)n(-c2ccccc2)c1 [pirfenidone] here?
A: approximately 50%

Q: What about the “side effects / most common adverse effects” value [3] of the same molecule?
A: diarrhea, photosensitivity and rash

Q: Which off-target kinase activity [1] does the source give for CNC(=O)c1ccccc1Nc1nc(Nc2ccc(N3CCOCC3)cc2OC)ncc1Cl [TAE226] here?
A: significant off-target kinase activity
